GI50 and TGI data for twelve compounds are collected here from PubChem BioAssay (NCI).

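Five compound concentrations were applied to cells in 96-well plates for 48 hours; endpoints were derived by simple linear interpolation of the resulting dose-response curve. Abbreviation: GI50, concentration required for 50% inhibition of growth. TGI marks complete inhibition of growth.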

Test systems include 786-0 renal; A498 renal; MALME-3M melanoma; SF-268 CNS; SF-295 CNS; SF-539 CNS; SK-MEL-2 melanoma; SK-MEL-28 melanoma.
What all share (experiment): growth of human tumour cells (NCI), 48 h

Regarding `O=S(=O)(NC1=NCCN1C(=S)SN1CCn2c1nsc2=S)c1ccc(Oc2ccccc2)cc1`, the GI50 was 63.8 µM in the test with 786-0 renal; 34.2 µM in the test with A498 renal; 26.2 µM in the test on MALME-3M melanoma; 57.3 µM in the test with SF-268 CNS; above 100 µM in the test with SF-295 CNS; 49.5 µM in the test on SF-539 CNS. Further, the results for the GI50 with SK-MEL-2 melanoma and in the test on SK-MEL-28 melanoma were 29.3 µM and above 100 µM, respectively. Further, the TGI with 786-0 renal was above 100 µM; in the test with A498 renal it was 97 µM; in the test on MALME-3M melanoma it was above 100 µM; in the test on SF-268 CNS it was above 100 µM; in the test with SF-295 CNS it was above 100 µM; with SF-539 CNS it was above 100 µM. Moreover, the TGI with SK-MEL-2 melanoma was 75.5 µM; with SK-MEL-28 melanoma it was above 100 µM.
`CC(=Nc1ccc(N(C)C)cc1)c1ccccc1`: the TGI in the test on 786-0 renal is 36.2 µM; in the test on A498 renal, above 100 µM; in the test with MALME-3M melanoma, 25.9 µM; in the test with SF-295 CNS, above 100 µM; with SF-539 CNS it was above 100 µM; in the test on SK-MEL-2 melanoma, 29.4 µM. This compound also showed a TGI with SK-MEL-28 melanoma above 100 µM.
With `Cc1ccc(N(C=O)c2c([N+](=O)[O-])cc([N+](=O)[O-])c3c2=[N+]([O-])CN=3)cc1`, the TGI is 67.6 µM in the test with 786-0 renal; above 100 µM with A498 renal; 43.1 µM in the test with MALME-3M melanoma; above 100 µM with SF-268 CNS; above 100 µM with SF-295 CNS; above 100 µM in the test with SF-539 CNS. For the same compound, the TGI in the test on SK-MEL-2 melanoma was 42.2 µM; in the test with SK-MEL-28 melanoma, above 100 µM.
With `O=C(O)CCC(c1ccccc1)(c1ccccc1)c1ccccc1`, the TGI was above 100 µM with 786-0 renal; above 100 µM with A498 renal; above 100 µM with MALME-3M melanoma; above 92.9 µM with SF-268 CNS; above 100 µM in the test with SF-295 CNS; above 100 µM in the test with SF-539 CNS. Besides, the figures for the TGI in the test with SK-MEL-2 melanoma and in the test with SK-MEL-28 melanoma were above 84 µM and above 100 µM, respectively.
`CCc1nc(C)cn1C(=O)OCc1nc2nc(Cl)nc(N3CCOCC3)c2[nH]1`: the GI50 in the test on 786-0 renal is 1.61 µM; in the test with A498 renal it was 1.92 µM; with MALME-3M melanoma it was 1.56 µM; in the test on SF-268 CNS, 1.53 µM; in the test on SF-295 CNS, 2.79 µM; in the test on SF-539 CNS, 1.27 µM. In addition, the GI50 with SK-MEL-2 melanoma is 1.72 µM; in the test with SK-MEL-28 melanoma it was 1.78 µM. For the same compound, the TGI with 786-0 renal was 3.29 µM; in the test with A498 renal, 3.54 µM; with MALME-3M melanoma, 2.95 µM; in the test on SF-268 CNS it was 3.06 µM; with SF-295 CNS, 11.7 µM; with SF-539 CNS, 2.54 µM. For the same compound, the TGI came to 3.29 µM with SK-MEL-2 melanoma and 3.2 µM in the test with SK-MEL-28 melanoma.
As to `Cn1ncc(C#N)c1-c1ccc2c(c1)CN([C@H](CN)Cc1cccc(F)c1)C2=O`, the GI50 with 786-0 renal is 0.145 µM; with A498 renal it was 0.157 µM; with MALME-3M melanoma, 1.33 µM; with SF-268 CNS, 20.1 µM; in the test with SF-295 CNS, 0.503 µM; with SF-539 CNS, 0.193 µM. In addition, the GI50 in the test on SK-MEL-2 melanoma was 16.6 µM; with SK-MEL-28 melanoma, 3.72 µM. For the same compound, the TGI with 786-0 renal was 14.6 µM; in the test with A498 renal it was 1.39 µM; with MALME-3M melanoma, 11.3 µM; in the test with SF-268 CNS, above 100 µM; in the test on SF-295 CNS it was 24.9 µM; in the test on SF-539 CNS, 8.74 µM. Further, the TGI with SK-MEL-2 melanoma is 44.8 µM; in the test on SK-MEL-28 melanoma, above 83.2 µM.
With `Oc1ccc2c(=S)cc(-c3ccc(Br)cc3)oc2c1O`, the GI50 was 2.89 µM with 786-0 renal; 2.15 µM in the test with A498 renal; 1.87 µM in the test with MALME-3M melanoma; 2.18 µM in the test with SF-268 CNS; 4.01 µM in the test with SF-295 CNS; 1.98 µM in the test with SF-539 CNS. The GI50 is 2.27 µM with SK-MEL-2 melanoma and 2.94 µM in the test with SK-MEL-28 melanoma. Besides, the TGI in the test with 786-0 renal is 11.1 µM; with A498 renal, 7.46 µM; in the test on MALME-3M melanoma, 6.06 µM; with SF-268 CNS, above 100 µM; with SF-295 CNS, 29.8 µM; with SF-539 CNS, 7.28 µM. The figures for the TGI with SK-MEL-2 melanoma and in the test on SK-MEL-28 melanoma were 6.76 µM and 28.7 µM, respectively.
As for `COc1cc(OCc2ccccc2)c2c(CCC(=O)O)cc(=O)oc2c1` (tested in a mixture with another compound), the TGI in the test with 786-0 renal is above 100 µM; in the test with A498 renal, 80.6 µM; in the test with MALME-3M melanoma it was above 100 µM; with SF-268 CNS, above 100 µM; with SF-539 CNS, above 100 µM; in the test with SK-MEL-2 melanoma, above 100 µM. This compound also came in with a TGI in the test with SK-MEL-28 melanoma of 99.9 µM.
`CCCCC(=O)N(c1ccc(Nc2c3ccccc3nc3cc([N+](=O)[O-])ccc23)cc1)S(C)(=O)=O`: the GI50 in the test on 786-0 renal is 4.3 µM; in the test with A498 renal, 1.71 µM; with MALME-3M melanoma, 14.3 µM; with SF-268 CNS it was 6.58 µM; with SF-295 CNS it was 4.83 µM; in the test on SF-539 CNS, 5.23 µM. Besides, the GI50 in the test on SK-MEL-2 melanoma is 23.3 µM; with SK-MEL-28 melanoma it was 14.5 µM. For the same compound, the TGI in the test with 786-0 renal is above 100 µM; with A498 renal, 13.1 µM; in the test with MALME-3M melanoma, 34.8 µM; with SF-268 CNS, above 77.7 µM; with SF-295 CNS, above 100 µM; with SF-539 CNS, above 61.9 µM. The TGI was found to be 62.9 µM in the test with SK-MEL-2 melanoma and 36.6 µM with SK-MEL-28 melanoma.
Take `COc1ccc(Cn2cc(COc3cc(/C=C/C(=O)c4cc(OC)c(OC)c(OC)c4)ccc3OC)nn2)cc1`: the GI50 with 786-0 renal is 5.01 µM; in the test with A498 renal it was 12.8 µM; in the test with MALME-3M melanoma it was 25.7 µM; with SF-268 CNS it was 3.75 µM; in the test with SF-539 CNS, 3.02 µM; with SK-MEL-2 melanoma it was 8.33 µM. For the same compound, the GI50 in the test on SK-MEL-28 melanoma is 7.45 µM. Further, the TGI is above 100 µM in the test with 786-0 renal; above 100 µM in the test with A498 renal; above 100 µM with MALME-3M melanoma; above 100 µM in the test on SF-268 CNS; 12.9 µM in the test with SF-539 CNS; 42.1 µM in the test on SK-MEL-2 melanoma. In addition, the TGI with SK-MEL-28 melanoma was above 100 µM.
With `COC(=O)C1C(C(=O)O)C2(c3ccccc3)C(=O)C1(c1ccccc1)C(c1ccccc1)=C2c1ccccc1` (stereo not given), the GI50 in the test with 786-0 renal is 21.2 µM; in the test with A498 renal, 15.2 µM; in the test on MALME-3M melanoma, 26.8 µM; in the test on SF-268 CNS, 20 µM; in the test on SF-295 CNS, 22.9 µM; in the test on SF-539 CNS, 19.5 µM. In addition, in the test on SK-MEL-2 melanoma, the GI50 is 16.5 µM. The TGI in the test on 786-0 renal was determined as 37.5 µM; with A498 renal it was 29.3 µM; with MALME-3M melanoma it was 59.3 µM; in the test with SF-268 CNS, 53.1 µM; in the test on SF-295 CNS, 71.2 µM; in the test on SF-539 CNS, 36.3 µM. For the same compound, the TGI in the test on SK-MEL-2 melanoma is 34.1 µM.
As for `CCC12C=CCN(CCc3c([nH]c4ccccc34)/C=C\1)C2` (stereo not given), the TGI with 786-0 renal, with A498 renal, in the test on MALME-3M melanoma, in the test with SF-268 CNS, in the test with SF-295 CNS and in the test on SF-539 CNS was above 100 µM in each case. Also, in the test with SK-MEL-2 melanoma, the TGI is above 100 µM.
